Source: patent US5041542A, “Substituted pyrimido[5,4-d]pyrimidine nucleosides” (Nucleic Acid Research Institute, priority 1988, dated 1991)
≈ marks a conversion by molar mass, not a printed value. Like-named read-outs stand apart in the source and are kept apart here.

Tests used:
WI-L2 cells = assay: In vitro cytotoxicity, WI-L2; assay type: cell-based; conditions: Homo sapiens, WIL2, 72 h; 3 days, 37° C., MTT; read-out: Antitumor (ID50) WI-L2
Procedure: (§1) ^b (ID50) inhibitory dose is the μM concentration of the
(§2) In vitro cytotoxicity analysis was performed by using the following cell lines: L1210 (a murine leukemia), WI-L2 (a human B-lymphoblast), and LoVo/L (a human colon carcinoma). Cells were grown in RPMI 1640 medium supplemented with 10% fetal bovine serum, 20 mM HEPES, pH 7.4, and 2 mM glutamine. The cytotoxicity determinations were carried out in 96-well microtiter dishes containing a starting number of 5-10×10^3 cells per well and 0.1-100 μM concentrations of the compounds in triplicate wells. L1210 and WI-L2 were incubated with the compounds at 37° C. for 3 days, while Lovo/L was incubated for 5 days. After this time period, 25 μL of 4 mg/mL 3-(4,5-dimethylthiazol-2-yl)-2,5-diphenyltetrazolium bromide was added to each well and incubation was continued for 2 to 5 h. The formazan product was dissolved in isopropanol containing 0.04M HCl and the absorbance was determined with a microtiter plate reader. The absorbance was proportional to the number of cells.

[1] = system: de novo purine biosynthesis in WI-L2 cells; assay: Inhibition of de novo purine biosynthesis ([14C]formate incorporation); assay type: cell-based, human; conditions: for minimal effective concentration: active at concentrations as low as, read-out: lowest active concentration, de novo purine biosynthesis; for activity at 0.25 µM / activity at 2.5 µM: pre-incubation 8 h; for inhibitory activity on de novo purine biosynthesis (ranking): WI-L2 cells
Procedure: (§3) Compounds of the invention were also tested for certain biochemical properties. Compounds of the invention were studied for their effect on de novo purine biosynthesis by observing inhibition of incorporation of [^14 C]formate into the acid-soluble fraction of WI-L2 cells (see Table 3). […] However, 8 and 14 (100 μM) were not cytotoxic to WI-L2 cells deficient in adenosine kinase activity.
(§4) A normal lymphoblast phenotype B cell line, WI-L2 was used. The enzyme-deficient cell lines used in vitro are: HPRT-, a hypoxanthine-guanine phosphorbosyl transferase (EC 2.4.2.8)deficient line and AK-, an adenosine kinase (EC 2.7.1.20)deficient line. Cells were cultured in RPMI 1640 medium containing 5% dialyzed fetal bovine serum, 20 mM Na HEPES, pH 7.5 and 2 mM glutamine and maintained in log phase growth between 0.5 and 12×10^5 cells/mL. The mutant cell lines were periodically reselected by treatment with 6-thioguanine (HPRT-) or tubercidin (AK-).
. Inhibition of de novo purine biosynthesis: WI-L2 or adenosine kinase-deficient cells were preincubated at 37° C. with drug for various time periods prior to labeling with [^14 C]formate. Enzyme Assays: Adenosine kinase inhibition studies were accomplished by the filter binding assay method. Inhibition studies were done at 37° C. with an assay mixture containing 4 mM ATP, 1.5 mM MgCl2, 5 or 10 μM [8-^14 C] adenosine (50 mCi/mmol) and 100 mM Tris-maleate, pH 5.5. To prevent the enzymatic breakdown of adenosine, erythro-9-(2-hydroxy-3-nonyl)adenine (EHNA) was added to the cell-free WI-L2 lysate to give 5 μM final assay concentration. The assay was started by the addition of protein. The amount of enzyme, time of assay and sampling volume were adjusted to give acceptable conversion of [8-^14 C] adenosine to [8-^14 C]AMP. Each DE-81 filter was spotted with a constant sampling volume and immersed in H 2 O (4 L) to terminate the reaction. Filters were washed three times with H2 O (4 L) and once with EtOH (100 mL). Dry filters were placed in scintillation vials and radioactivity was counted with 10 mL toluene-based scintillation cocktail.
De novo purine biosynthesis was measured by the incorporation of ^14 C-formate into cellular purine nucleotides or excreted purines after pre-incubation with compound.

[2] = system: WI-L2 cells deficient in adenosine kinase; assay: Cytotoxicity to WI-L2 cells deficient in adenosine kinase activity; assay type: cell-based, human; conditions: 100 μM
Procedure: as §3, §4

adenosine deaminase = assay: in vitro; assay type: biochemical; conditions: compared with ARPP
Procedure: (§5) Samples were analyzed directly on reverse-phase HPLC. Enzymatic conversions were distinguished from hydrolysis by treating a parallel sample with EHNA to inhibit the deaminase activity.

in vitro = assay type: biochemical; conditions: adenosine deaminase, pH 7.5
Procedure: as §5

physchem = conditions: water
[3] = system: parainfluenza 3 (C243 strain); assay: In vitro antiviral activity, parainfluenza 3 (virus rating); assay type: cell-based; conditions: Vero cells; VR >1.0 marked, 0.5 to 0.9 moderate, <0.5 weak or no activity
[4] = system: vaccinia virus (Elstree strain); assay type: cell-based; conditions: HeLa cells; VR >1.0 marked, 0.5 to 0.9 moderate, <0.5 weak or no activity
LoVo/L cells = assay: In vitro cytotoxicity, LoVo/L; assay type: cell-based; conditions: Homo sapiens, 120 h, 5 days, 37° C., MTT, read-out: Antitumor (ID50) LoVo/L
Procedure: as §1, §2

L1210 cells = assay: In vitro cytotoxicity, L1210; assay type: cell-based, murine; conditions: Mus musculus, L1210, 72 h; 3 days, 37° C., MTT; read-out: Antitumor (ID50) L1210
Procedure: as §1, §2

[5] = delivered at 0.01 ml/g mouse weight
L1210 = assay: In vivo antitumor activity against L1210 in BDF1 mice
Procedure: Compounds 8, 11, 14 and 17 were comparatively evaluated in vivo for efficacy against L1210 in BDF1 mice.
Mice were inoculated i.p. with 1×10^6 L1210 cells 24 hr before qd, day 1, i.p. drug delivery. Drugs were solubilized in water and delivered at the rate of 0.01 ml/g mouse weight. Then control mice/drug were injected i.p. with equivalent volumes of a 0.9% solution of NaCl, the means and standard deviations reflecting the postinoculation life spans of these mice ranged from 6.30±0.48 to 6.60±0.97 days.

[6] = system: pyrimidine (CTP + UTP) and purine (ATP + GTP) nucleoside triphosphates; assay: 14C-bicarbonate incorporation into acid soluble pyrimidine and purine nucleoside triphosphates; assay type: cell-based
Excerpt: Comparative effect of compounds on ^14 C-bicarbonate
incorporation into acid soluble pyrimidine (PyrTP,
CTP + UTP) and purine (PurTP, ATP + GTP) nucleoside

[7] = Lethal toxicity in treated mice
[8] = system: herpes simplex virus type 2 (MS strain); assay: In vitro antiviral activity, herpes simplex virus type 2 (virus rating); assay type: cell-based; conditions: Vero cells; VR >1.0 marked, 0.5 to 0.9 moderate, <0.5 weak or no activity
[9] = Homo sapiens, WIL2, cell, read-out: de novo purine biosynthesis, % of control, cell, 0.25 μM
[10] = Homo sapiens, WIL2, cell, read-out: de novo purine biosynthesis, % of control, cell, 2.5 μM
[11] = Homo sapiens, WIL2, media (excreted purines), read-out: de novo purine biosynthesis, % of control, media, 0.25 μM
[12] = Homo sapiens, WIL2, media (excreted purines), read-out: de novo purine biosynthesis, % of control, media, 2.5 μM

Row | Structure (SMILES) | IC50 (WI-L2 cells) [nM] | effect on de novo purine biosynthesis [1] | minimal effective concentration ([1]; Homo sapiens, WIL2) [µM] | activity at 0.25 µM [1, 9] [%] | activity at 2.5 µM [1, 10] [%] | activity at 0.25 µM [1, 11] [%] | activity at 2.5 µM [1, 12] [%] | inhibitory activity on de novo purine biosynthesis (ranking) [1] | cytotoxicity to adenosine kinase-deficient WI-L2 cells [2] | substrate activity for adenosine deaminase (adenosine deaminase) | solubility (physchem) [mg/mL] | Antiviral (VR) PI3 [3] [VR] | Antiviral (VR) VV [4] [VR] | IC50 (LoVo/L cells) [nM] | IC50 (L1210 cells) [nM] | Maximum watersoluble dosage [5] [mg/kg/inj.] | lethal toxicity at maximum soluble dosage ([7]; i.p.) | Antiviral (VR) HSV2 [8] [VR] | also measured
1 | Nc1ncnc2c(N[C@@H]3O[C@H](CO)[C@@H](O)[C@H]3O)ncnc12 [Compound 8, 4-Amino-8-(β-D-ribofuranosylamino)pyrimido[5,4-d]pyrimidine, reference compound] | 200 | inhibit an early step in de novo purine biosynthesis | 0.25 | 79.5 | 29.9 | 71.9 | 54.6 | greatest inhibitory activity | not cytotoxic | preferential disappearance of the β-anomer | 17.3 (≈ 58.8 mM) | 0.7 | 1.3 | 7000 | 800 | 173 | Neither drug was lethally toxic at its maximum soluble dosage | 0.8 | metabolised at 5 min, 1000 µM (in vitro; 5 min, β-anomer, read-out: conversion of β-anomer by adenosine deaminase in 5 min): 60%; Postinoculation Lifespan (% T/C), 173 mg/kg/inj. (L1210; 173 mg/kg/inj. i.p., qd, day 1): 162 % T/C; T/C (L1210; qd, day 1, at maximum soluble dosage): 162; CAA (carbamyl aspartate), 1.5 μM ([6]; 1.5 μM): 1608 cpm/10^6 cells; PurTP, 1.5 μM ([6]; 1.5 μM, zero = undetectable): 0 cpm/10^6 cells; PyrTP, 1.5 μM ([6]; 1.5 μM, zero = undetectable): 0 cpm/10^6 cells; activity at 1.5 µM ([6]; 1.5 μM, zero = undetectable, read-out: PurTP, % control, 1.5 μM): 0%; activity at 1.5 µM ([6]; read-out: PydTP, % control, 1.5 μM): 0%
2 | COc1ncnc2c(N[C@@H]3O[C@H](CO)[C@@H](O)[C@H]3O)ncnc12 [Compound 14, 4-Methoxy-8-(β-D-ribofuranosylamino)pyrimido[5,4-d]pyrimidine] | 60 | inhibit an early step in de novo purine biosynthesis | 0.25 | 41.9 | 2.7 | 63 | 41.8 | greatest inhibitory activity | not cytotoxic | less active as a substrate for adenosine deaminase | 17.3 (≈ 55.9 mM) | 0.7 | 1.0 | 280 | 40 | 173 | lethally toxic at that level for all treated mice | 0.2 | activity at 25 µM ([1]; Homo sapiens, WIL2, cell, 25 μM, pre-incubation 4 h, read-out: de novo purine biosynthesis, % of control, cell, 25 μM): 4.3%; metabolised at 18 h, 1000 µM (in vitro; 18 h, same conditions as for ARPP, read-out: deaminated by adenosine deaminase in 18 h): < 10%; T/C, 62 mg/kg (L1210; 62 mg/kg, qd day 1): 182; Postinoculation Lifespan (% T/C), 62 mg/kg/inj. (L1210; 62 mg/kg/inj. i.p., qd, day 1): 182 % T/C; CAA (carbamyl aspartate), 5.0 μM ([6]; 5.0 μM): 1322 cpm/10^6 cells; PurTP, 5.0 μM ([6]; 5.0 μM, zero = undetectable): 0 cpm/10^6 cells; PyrTP, 5.0 μM ([6]; 5.0 μM, zero = undetectable): 0 cpm/10^6 cells; activity at 5 µM ([6]; 5.0 μM, zero = undetectable, read-out: PurTP, % control, 5.0 μM): 0%; activity at 5 µM ([6]; 5.0 μM, zero = undetectable, read-out: PydTP, % control, 5.0 μM): 0%; maximum non-lethal concentration ([7]; i.p., qd day 1): 6.2 mg/mL; death of treated mice at 10.4 mg/mL ([7]; made up at 10.4 mg/mL): 1/6
